Measurements taken from ChEMBL document CHEMBL1145987, “Structural determinants of selective thyromimetics” (J Med Chem, 2003).

Experiments:
[1] = target: T1, Thyroid hormone receptor alpha (Homo sapiens, UniProt P10827); assay: Binding affinity of compound was determined against Thyroid hormone receptor alpha1
T1 sequence (P10827 whole entry): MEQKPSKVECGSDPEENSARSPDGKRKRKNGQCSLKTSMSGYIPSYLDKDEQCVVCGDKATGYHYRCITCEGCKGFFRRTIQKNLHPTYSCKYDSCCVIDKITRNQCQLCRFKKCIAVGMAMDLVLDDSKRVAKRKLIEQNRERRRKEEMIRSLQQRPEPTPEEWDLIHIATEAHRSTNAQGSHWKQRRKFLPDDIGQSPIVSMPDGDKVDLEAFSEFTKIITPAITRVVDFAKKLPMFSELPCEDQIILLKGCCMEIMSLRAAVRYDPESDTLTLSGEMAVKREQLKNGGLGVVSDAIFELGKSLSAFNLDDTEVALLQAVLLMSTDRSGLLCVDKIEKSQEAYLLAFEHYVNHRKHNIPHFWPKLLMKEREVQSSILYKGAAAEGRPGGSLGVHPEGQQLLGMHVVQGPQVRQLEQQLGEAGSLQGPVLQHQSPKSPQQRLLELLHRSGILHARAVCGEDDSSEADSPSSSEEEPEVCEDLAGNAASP

[2] = target: T2, Thyroid hormone receptor beta (Homo sapiens, UniProt P10828); assay: Binding affinity of compound was determined against thyroid hormone receptor beta 1
T2 sequence (P10828 whole entry): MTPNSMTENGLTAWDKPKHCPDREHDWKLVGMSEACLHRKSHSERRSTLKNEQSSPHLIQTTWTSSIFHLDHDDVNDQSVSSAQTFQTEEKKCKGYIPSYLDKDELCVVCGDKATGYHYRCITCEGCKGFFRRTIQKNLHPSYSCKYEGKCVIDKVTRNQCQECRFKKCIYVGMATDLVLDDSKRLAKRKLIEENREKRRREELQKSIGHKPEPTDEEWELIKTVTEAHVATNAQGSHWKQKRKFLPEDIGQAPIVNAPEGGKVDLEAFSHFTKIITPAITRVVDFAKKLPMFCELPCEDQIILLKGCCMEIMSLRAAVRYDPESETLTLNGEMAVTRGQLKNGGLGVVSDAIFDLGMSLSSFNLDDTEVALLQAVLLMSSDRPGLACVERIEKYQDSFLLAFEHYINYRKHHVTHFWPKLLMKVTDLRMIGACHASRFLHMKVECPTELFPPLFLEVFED

Kd [1] [nM]	Kd [2] [nM]	SMILES
8.5	6.2	Cc1cc(C[C@H](N)C(=O)O)cc(C)c1Oc1ccc(O)c(C(C)C)c1
2.02	1.26	Cc1cc(C[C@H](N)C(=O)O)cc(C)c1Cc1ccc(O)c(C(C)C)c1
2.4	0.36	Cc1cc(OCC(=O)O)cc(C)c1Oc1ccc(O)c(C(C)C)c1

SMILES	Kd [1] [nM]	Kd [2] [nM]
Cc1cc(CCC(=O)O)cc(C)c1Cc1ccc(O)c(C(C)C)c1	0.69	0.22
